Laboratory results as given in patent US8394776B2, “Use of ursolic acid saponin,oleanolic acid saponin in preparation of increasing leucocytes and/or platelet medicine” (Chengdu Di'Ao Jiuhong Pharmaceutical Factor, priority 2007, dated 2013).
Marks after values point to notes of the source that are not given here.

B1: G-CSF: recombinant granulocyte colony-stimulating factor, manufactured by QI LU Pharmaceutical Co., LTD., Shandong (protein, UniProt P09919 31-207, looked up)
Granulocyte …: TPLGPASSLPQSFLLKCLEQVRKIQGDGAALQEKLVSECATYKLCHPEELVLLGHSLGIPWAPLSSCPSQALQLAGCLSQLHSGLFLYQGLLQALEGISPELGPTLDTLQLDVADFATTIWQQMEELGMAPALQPTQGAMPAFASAFQRRAGGVLVASHLQSFLEVSYRVLRHLAQP

Key:
[1] = tested on: bone marrow mononuclear cell (BMMNC); assay: Monocytic proliferation in bone marrow of mice cultured in vitro (SRB method); format: cell-based, KunMing mice; conditions: cultured 5 days; for Growth Rate of Proliferation %, 1 μg/ml: versus blank control
Source text: 15-20 KunMing mice (purchased from Laboratory Animal Center of Zhengzhou University, Henan) of either sex were killed by cervical vertebral dislocation. Bilateral thighbones were isolated and caput femoris was cut off. The marrow was washed repeatedly with serum-free RPMI1640 (Gibco Corp.), the wash solution containing marrow cells was collected, sucked and blew repeatedly with a pipette to make the cells disperse. After standing for a moment, the supernatant was sucked up and centrifugated at 100 g for 3 min to collect the cell pellet. The cells were resuspended in a culture media and brought to a volume of 5 ml. The cell suspension was added to the upper layer of a centrifugal tube containing 5 ml of a lymphocyte separation medium of mice and centrifugated at 400 g for 30 min. The milk-white bone marrow mononuclear cell (BMMNC) layer in the middle of the interface was collected and washed with serum-free medium RPMI1640 for three times to obtain a BMMNC suspension, which was inoculated into a 96-well plate at forty thousand per well after counting. Positive drugs rhG-CSF (recombinant granulocyte colony-stimulating factor, manufactured by QI LU Pharmaceutical Co., LTD., Shandong) or test samples of different concentrations were added, and meanwhile a blank control group without drug was established. They were cultured in a 5% CO2 incubator at 37 for 5 days. Cell proliferation was measured by a conventional SRB (Sigma) method in which OD at 490 nm was measured after being dyed with SRB. The growth rates of cell proliferation after drug treatment were calculated (Growth rate of cell proliferation=experimental group-blank control group/blank control group*100%).

leukocytes (WBC) = assay: Cyclophosphamide-induced leukopenia in mice: leukocytes (WBC); format: in vivo, Kunming mice
Protocol: (§1) Further, in vivo experiments were carried out on the compounds involved in the present invention using animal models of cyclophosphamide-induced leukopenia in mice. Experimental methods are briefed as follows: Healthy Kunming mice, of which half were male and the other half were female, were divided into groups, each group incuding 18 mice, and those mice weighing 18-22 g were selected and divided into groups randomly according to their body weights. Each group was given a different drug, wherein the negative control group and model control group were given physiological saline of the same volume, and the positive control group was treated with granulocyte colony-stimulating factors 40 μg/kg through subcutaneous injection (injection volume: 0.1 ml/10 g). After administration for 3 days, except the negative control group, other treatment groups were treated with 100 mg/kg cyclophosphamide (CY) through lumbar injection once a day for three days to cause a decrease of leukocytes in mice. A drop of blood (20 μl) was taken from posterior orbital venous plexus to detect the hemogram to observe the situation of leukocytes and platelets on day 1, day 3 and/or day 5 after the final lumbar injection of cyclophosphamide (i.e day 1, day 3 and/or day 5 after modeling) (Note: Each treatment group was administrated incessantly). The mice were killed on day 5 after the final lumbar injection of cyclophosphamide (i.e day 5 after modeling), and the leukocytes (WBC) and platelets (PLT) of the hemogram index were counted.
This experiment mainly studies the effect of G-1, G-6 and G-8 of ursolic acid saponin in increasing leukocytes, and compares the therapeutic effects of aglycon of ursolic acid and oleanolic acid and of the compound G-22 which has been disclosed by a patent.
(§2) The purpose of this experiment is to study the effect of G-1, G-3, G-11 and G-12 of ursolic acid saponin and oleanolic acid saponin in increasing platelets, and to observe whether G-11 and G-12 of oleanolic acid saponin have an effect in increasing leukocytes.

platelets (PLT) = assay: Cyclophosphamide-induced leukopenia in mice: platelets (PLT); format: in vivo, Kunming mice; conditions: Experimental Example 3; for difference in increasing platelets compared with G-22 (in words): day 5 after modeling
Protocol: as §1, §2

WBC = assay: 60Co-γ-induced leukopenia in mice: WBC; format: in vivo, Kunming mice
Source text: In order to illustrate the present invention in detail, with a model induced by ^60Co-γ rays, the effects of G-1 and G-22 on leukocytes of chemotherapy-induced-leukopenia mice were compared. The specific operation and the results are as follows.
Healthy Kunming mice, of which half were male and the other half were female, were divided into 6 groups randomly, with 17-18 in each group. Blood was taken from caudal vein to determine the normal hemogram (leucocyte, erythrocyte, platelet and hemoglobin), and adjustments were made according to body weights and hemogram results. The normal control group and model group were given isometric physiological saline once a day for 7 days, and then the post-radiation hemogram was determined. Except the normal control group, other groups were each subjected to a whole body exposure to ^60Co-γ rays at a total dose of 3.0 Gy to prepare the models of leukopenia in mice, followed by further administration for 14 days. The G-CSF group was adminitrated through subcutaneous injection for 5 days from the irradiation day on and the hemogram was determined by taking blood respectively on day 3, day 7 and day 14 after irradiation.

erythrocytes = assay: Comparison of hemolytic activities (HD50); format: cell-based, rabbit; conditions: for HD50 (drug concentration causing 50% hemolysis): 10% rabbit erythrocyte suspension, 37° C., 1 hour, from linear regression over 40-200 μg/ml
Protocol: The test samples were dissolved in DMSO/physiological saline (1:4) as a solvent to generate the tested concentration gradients of 40, 80, 120, 160, 200 μg/ml. Blood (25 ml) was taken from a rabbit heart, poured into an erlenmeyer flask containing glass beads and shook gently for 10 min to remove fibrinogen so as to convert the blood into defidrinated blood. The resultant blood was transferred into a graduation centrifugal tube. About 10 times physiological saline was added, shook up and centrifuged at 2000 r/min for 5 minutes. The supernatant was removed, and the precipitated erythrocytes were washed with physiological saline again by the above method for 4 times until the supernatant was colorless and transparent. The resulant erythrocytes were prepared into a 10% suspension using physiological saline for testing. 250 μl of the 10% erythrocyte suspension was added into 2.5 ml of a tested sample, solvent (blank control) or distilled water (positive control), mixed thoroughly, and immediately placed in a thermotank maintained at 37° C. for incubation; and it was taken out 1 hour later and centrifuged at 3000 r/min for 5 minutes. The supernatant was taken for determining the OD value at 540 nm with a spectrophotometer. Hemolysis (Hemolysis Percentage)=(absorbance of sample−absorbance of blank control)×100%÷(absorbance of positive control-absorbance of blank control); and the data processing was performed by SPSS13.0 statistical software with drug concentration as an independent variable X and hemolysis as a dependent variable Y to obtain a linear regression equation; then, the drug concentration causing 50% hemolysis, i.e HD50, was calculated according to the equation. A P-value <0.05 was considered statistically significant.

[2] = Experimental Example 2, 0.8 mg/kg
[3] = Experimental Example 2, 0.8 mg/kg, CY 100 mg/kg x 3 days
[4] = Experimental Example 2, 0.8 mg/kg, especially on day 3 after modeling
[5] = Experimental Example 3, 0.8 mg/kg
[6] = Experimental Example 3, 0.8 mg/kg, day 5 after modeling
[7] = 0.80 mg/kg i.g., 3.0 Gy whole body
[8] = Experimental Example 2, 40 μg/kg subcutaneous injection
[9] = Experimental Example 3, 40 μg/kg subcutaneous injection
[10] = 40 μg/kg subcutaneous injection
[11] = 40 μg/kg s.c. for 5 days from irradiation day, 3.0 Gy

Molecule	Growth Rate of Proliferation %, 1 μg/ml [1]	leukocytes (WBC), Day 3 after modeling (leukocytes (WBC); [2])	leukocytes (WBC), Day 5 after modeling (leukocytes (WBC); [2])	leukocytes (WBC), Day1 after modeling (leukocytes (WBC); [3])	difference in increasing leukocytes compared with G-22 (in words) (leukocytes (WBC); [4])	leukocytes, Day 1 after modeling (leukocytes (WBC); [5])	leukocytes, Day 5 after modeling (leukocytes (WBC); [5])	difference in increasing leukocytes compared with G-22 (in words) (leukocytes (WBC); [6])	platelets, Day 1 after modelng (platelets (PLT); 0.8 mg/kg)	platelets, Day 5 after modeling (platelets (PLT); 0.8 mg/kg)	difference in increasing platelets compared with G-22 (in words) (platelets (PLT); 0.8 mg/kg)	HD50 (drug concentration causing 50% hemolysis) (erythrocytes)	also measured
C[C@H]1[C@H](C)CC[C@]2(C(=O)O[C@@H]3OC[C@H](O)[C@H](O)[C@H]3O)CC[C@]3(C)C(=CC[C@@H]4[C@@]5(C)CC[C@H](O[C@@H]6OC[C@H](O)[C@H](O)[C@H]6O)C(C)(C)[C@@H]5CC[C@]43C)[C@H]12 [Sample G-1, 3-O-(α-L-arabopyranosyl) ursolic acid-28-O-(α-L-arabopyranosyl) ester]	31.3%	7.85 ± 3.00**★★	15.46 ± 10.44	1.14 ± 0.56Δ	obvious difference in increasing leukocytes	0.98 ± 0.55	9.33 ± 5.17	significant difference in increasing leukocytes and platelets	504.67 ± 117.81	413.00 ± 218.95*★★	significant difference in increasing leukocytes and platelets	345 µg/mL	effect in increasing leukocytes (in words) (leukocytes (WBC); [5]): obvious effect in increasing leukocytes and platelets; effect in increasing platelets (in words) (platelets (PLT); 0.8 mg/kg): obvious effect in increasing leukocytes and platelets; effect on leucocyte count of leukopenia mice (in words) (WBC; 0.80 mg/kg gastric perfusion, versus model group, day 7 and day 14 after irradiation): increased obviously; WBC, 1 week after administration (WBC; 0.80 mg/kg i.g. once a day for 7 days, before irradiation): 9.21 ± 2.16 109/L; WBC, Day 3 after irradiation (WBC; [7]): 2.06 ± 0.75 109/L; WBC, Day 7 after irradiation (WBC; [7]): 4.59 ± 1.52** 109/L; WBC, Day 14 after irradiation (WBC; [7]): 6.37 ± 1.54** 109/L; WBC, Normal (WBC; normal hemogram before administration (baseline), 0.80 mg/kg i.g. group): 8.96 ± 1.58 109/L; tendency to cause hemolysis (in words) (erythrocytes; comparison among G-1, G-3, G-6, G-8): the most difficult to cause hemolysis
C[C@H]1[C@H](C)CC[C@]2(C(=O)O[C@@H]3O[C@H](CO)[C@@H](O)[C@H](O)[C@H]3O)CC[C@]3(C)C(=CC[C@@H]4[C@@]5(C)CC[C@H](O[C@@H]6OC[C@H](O)[C@H](O)[C@H]6O)C(C)(C)[C@@H]5CC[C@]43C)[C@H]12 [Sample G-8, 3-O-(α-L-arabopyranosyl) ursolic acid-28-O-(β-D-glucopyranosyl) ester]	29.5%	6.91 ± 2.54**★	15.32 ± 9.07	0.85 ± 0.39	obvious difference in increasing leukocytes							69.96 µg/mL	
C[C@H]1[C@H](C)CC[C@]2(C(=O)O)CC[C@]3(C)C(=CC[C@@H]4[C@@]5(C)CC[C@H](O[C@@H]6OC[C@H](O)[C@H](O)[C@H]6O)C(C)(C)[C@@H]5CC[C@]43C)[C@H]12 [Sample G-6, 3-O-(α-L-arabopyranosyl) ursolic acid]	29.9%	7.13 ± 2.61**★	17.16 ± 14.13	1.19 ± 0.47	obvious difference in increasing leukocytes							121.40 µg/mL	
C[C@H]1[C@H](C)CC[C@]2(C(=O)O[C@@H]3O[C@H](CO)[C@@H](O)[C@H](O)[C@H]3O)CC[C@]3(C)C(=CC[C@@H]4[C@@]5(C)CC[C@H](O[C@@H]6O[C@H](CO)[C@@H](O)[C@H](O)[C@H]6O)C(C)(C)[C@@H]5CC[C@]43C)[C@H]12 [Sample G-3, 3-O-(β-D-glucopyranosyl) ursolic acid-28-O-(β-D-glucopyranosyl) ester]	25.2%					1.16 ± 0.53	5.62 ± 2.78	significant difference in increasing leukocytes and platelets	473.12 ± 144.68	341.93 ± 186.39**★	significant difference in increasing leukocytes and platelets	137.99 µg/mL	
B1													Growth Rate of Proliferation % ([1]; G-CSF positive drug at 5 pg/ml): 33.2%; leukocytes (WBC), Day1 after modeling (leukocytes (WBC); [8]): 1.17 ± 0.33; leukocytes (WBC), Day 3 after modeling (leukocytes (WBC); [8]): 5.93 ± 3.10; leukocytes (WBC), Day 5 after modeling (leukocytes (WBC); [8]): 13.18 ± 5.53; leukocytes, Day 1 after modeling (leukocytes (WBC); [9]): 0.63 ± 0.20; leukocytes, Day 5 after modeling (leukocytes (WBC); [9]): 9.70 ± 5.28; platelets, Day 1 after modelng (platelets (PLT); [10]): 408.38 ± 86.38; platelets, Day 5 after modeling (platelets (PLT); [10]): 206.64 ± 140.14; effect in increasing platelets (in words) (platelets (PLT); G-CSF 40 μg/kg subcutaneous injection): no obvious effect in increasing platelets; WBC, Day 3 after irradiation (WBC; [11]): 3.71 ± 1.11** 109/L; WBC, Day 7 after irradiation (WBC; [11]): 4.56 ± 1.17** 109/L; WBC, Day 14 after irradiation (WBC; [11]): 7.01 ± 1.52** 109/L; WBC, 1 week after administration (WBC; G-CSF group before irradiation, G-CSF is given only from the irradiation day on): 9.89 ± 3.30 109/L; WBC, Normal (WBC; normal hemogram (baseline), G-CSF group, not yet dosed): 8.64 ± 2.01 109/L
